US20110040170A1, “ENDOSCOPIC IMAGING PHOTODYNAMIC THERAPY SYSTEM AND METHODS OF USE” (YEDA RESEARCH AND DEVELOPMENT CO., LTD., priority 2008, published 2011)
Values joined by “and” are separate entries in the source; they are usually repeats but may differ in a detail not shown here. Equal entries are not always repeated. “Also recorded” adds a separate entry of the source.

Assays:
uterine horn = settings: cited from earlier work
extrauterine pregnancy = settings: selected patients (mass less than 4 cm, no fetal heart beat, low β-hCG); cited from earlier work
[1] = rat
Description: (vi) Post PDT fertility assessment. Treated rats were allowed to reach parturition and pup weaning (P21). Fertile males were then introduced into the cages and rats were allowed to mate until pregnancy could be verified by daily vaginal smears and palpation. Pregnancy in both uterine horns was verified by magnetic resonance imaging (MRI) and/or by animal sacrifice and macroscopic examination.

feto-placental unit [2] = test: Histological analysis of feto-placental units and adjacent uterus after in utero PDT; format: in vivo, Wistar rats; settings: E16
Protocol: (iv) In vivo PDT protocol. A pregnant rat (E14) was anesthetized by isoflurane inhalation using the IMPAC6 system (VetEquip Inc., Pleasanton, Calif., USA) and placed on its back; the lower abdomen was shaved, washed with 70% ethanol and draped with sterile gauze. A midline incision (approximately 2 cm in length) in the lower abdomen was performed by cutting the skin and abdominal-muscle layers separately. Using round forceps, the uterus was gently drawn out from the abdominal cavity and placed on the gauze. The exposed uterus was continuously irrigated with sterile 0.9% NaCl solution during the procedure (for layout, see FIGS. 5A, 5B). One embryo was randomly selected for treatment and positioned with the placenta facing up. The laser beam was then directed to the exposed placental pole and the beam positioned for subsequent therapeutic illumination (6 mm light spot diameter) using the built-in visible (630 nm, 3 mW) aiming beam. No shielding of neighboring embryos was required. The photosensitizer PMRDA (50 μg/30 μl sterile saline) was delivered by trans-uterine injection (30G, 0.3 ml, insulin syringe) into the placenta. Following a drug/light time interval (DLTI) of 120 sec, illumination (100 mW/cm^2) was delivered (300 sec) to the placenta in a trans-uterine manner from above, perpendicular to the uterus (FIG. 5A). Upon completion of the PDT protocol, the uterus was eased back into the abdominal cavity. The abdominal facia was sutured using sterile 4-0 braided silk thread and the skin was clipped using 9 mm surgical clips. Anesthesia was discontinued and the rat was placed in a cage and closely monitored for at least 48 h. Animals received analgesia (Oxycod®, 6 ml/l) in their drinking water for at least 48 h. Controls: Dark control (DC): placental administration of photosensitizer without illumination. Light control (LC): placental sham injection of sterile vehicle (saline), followed by illumination with the respective light dose. Untreated control (UN): all untreated fetoplacental units in a treated rat.
(viii) Histology. […]

uterus = test: Histological analysis of post-PDT uteri for long-term damage; format: in vivo, Wistar rats
Protocol: (viii) Histology. Following animal sacrifice, the abdomen was surgically opened, the uterus was tied-off at the cervix, removed and placed in Carnoy's fixative (6:3:1 ethanol, chloroform and acetic acid, by vol.), or Tris-buffered Zn fixative (2.8 mM calcium acetate, 22.8 mM zinc acetate, and 36.7 mM zinc chloride in 0.1M Tris buffer, pH 7.4) for 48-72 h. Fixed tissue samples were placed in 70% ethanol, paraffin embedded and slides were prepared. Slides were stained with hematoxylin and eosin (H&E) Immunohistochemical staining of the specific cell markers was done using the following antibodies: sheep anti-von Willebrand Factor (vWF)] (Serotec, Oxford, UK), mouse anti-pancytokeratin (clone AE1/AE3, Zymed, San-Francisco, USA) and mouse anti-human smooth muscle actin (SMA) (a SMC marker) (clone 1A4, Serotec, Oxford, UK).
Following verification of the functional integrity of post-PDT rat uteri, histological analysis was conducted in order to identify possible long-term damage resulting from the treatment. For this purpose, uteri in post-PDT and control manipulated rats were examined approximately 10 days after parturition (17-18 days after treatment). The respective uteri were stained by standard H&E (FIGS. 8B and 8F) as well as by anti-SMA antibody (a SMC marker, indicative of uterine wall integrity) (FIGS. 8C and 8G), anti-pan-cytokeratin antibody (an epithelial cell marker, indicative of endometrial integrity and absence of adhesions) (FIGS. 8D and 8H) and for vWF factor (an endothelial cell marker, illustrating blood vessel integrity) (FIGS. 8E and 8I). Uteri featured mild to moderate organizing hemorrhages in the endometrium and mesometrium, typical of post-gravid uteri (uteri after parturition). The only type of lesion found was the presence of a low number of hemosiderin-laden macrophages (siderophages) in the endometrium (where such a presence is normal) and in the mesometrium. This finding (siderophages) was highest in the DC uterus and milder in the post PDT uterus.

feto-placental unit [3] = test: In vivo placental PDT of a single feto-placental unit in the pregnant rat
Protocol: Materials and Methods (i) Animals. Pregnant 10-week old female Wistar rats (litter sizes of 10±2) (Harlan Laboratories, Rehovot, Israel) were delivered to the lab on embryonic day 7-12 (E7-E12) and allowed acclimatization of at least 48 h. All animal protocols were approved by the Weizmann Institutional Animal Care and Use Committee (IACUC).
(ii) Photosensitizer. Palladium 3^1-oxo-15 -methoxycarbonylmethylrhodobacterio-chlorin-13^1,17^3-di(2-N2-dimethylaminoethyl) amide (PMRDA), a water-soluble positively charged Pd-bacteriochlorophyll derivative disclosed in WO 2005/120573, was either synthesized in the inventor's laboratory by known methods or kindly provided by Steba Laboratories Ltd. (Israel), and used as a photosensitizer. The PMRDA was obtained as powder and kept under Argon (Ar) at −20° C. in the dark. Thereafter it was dissolved in methanol (MeOH) and, following spectrophotometric determination of concentration, was divided into aliquots, dried under Ar and kept at −20° C. in the dark until use.
(iii) Light source. A 1W 755 nm laser (CeramOptec, Bonn, Germany) was used. Light was delivered via a diffuser tipped optic fiber (Medlight S.A., Ecublens, Switzerland).
(iv) In vivo PDT protocol. A pregnant rat (E14) was anesthetized by isoflurane inhalation using the IMPAC6 system (VetEquip Inc., Pleasanton, Calif., USA) and placed on its back; the lower abdomen was shaved, washed with 70% ethanol and draped with sterile gauze. A midline incision (approximately 2 cm in length) in the lower abdomen was performed by cutting the skin and abdominal-muscle layers separately. Using round forceps, the uterus was gently drawn out from the abdominal cavity and placed on the gauze. The exposed uterus was continuously irrigated with sterile 0.9% NaCl solution during the procedure (for layout, see FIGS. 5A, 5B). One embryo was randomly selected for treatment and positioned with the placenta facing up. […] Anesthesia was discontinued and the rat was placed in a cage and closely monitored for at least 48 h. […]

[4] = subsequent fertility after 5-ALA PDT

NCC(=O)CCC(=O)O [5-ALA, 5-aminolevulinic acid]
treated animals that did not conceive following PDT (uterine horn; 5-ALA administered E10, examined E17): one third | fewer implanted embryos in the treated horn (uterine horn; [4]): ~28% | treated animals that developed pregnancies in the treated horn subsequently (uterine horn; [4]): 66.2% | pregnancy outcome in the treated uterine horn (uterine horn; systemic 5-ALA, whole horn illuminated): loss of all embryos in the treated uterine horn; also recorded: termination of all pregnancies in the treated horn

CN(Cc1cnc2nc(N)nc(N)c2n1)c1ccc(C(=O)N[C@@H](CCC(=O)O)C(=O)O)cc1 [methotrexate, Methotrexate]
success rate of medical therapy of EUP (extrauterine pregnancy): 70-95%

Palladium 3^1-oxo-15 -methoxycarbonylmethylrhodobacterio-chlorin-13^1,17^3-di(2-N2-dimethylaminoethyl) amide [PMRDA]
fertility following local in vivo placental PDT [1]: fertility of the rats is preserved | ability to conceive after PDT, parturition and re-mating ([1]; in vivo): all six rats pregnant | litter sizes of second pregnancy ([1]; in vivo): 6-11 | parturition of the remaining litter after treatment ([1]; in vivo): All six rats achieved normal parturition | pups delivered at parturition after treatment ([1]; in vivo): 6 to 11 pups | placental necrosis, share of placental mass involved (feto-placental unit [2]; post-PMRDA-PDT placenta): approximately 70% | histological state of the embryo (feto-placental unit [2]; post-PMRDA-PDT): fully necrotic embryo | state of the uterus adjacent to the treated placenta (feto-placental unit [2]; post-PMRDA-PDT): appeared viable | siderophages in endometrium and mesometrium, post PDT uterus (uterus; PMRDA with illumination): milder | siderophages in endometrium and mesometrium, DC uterus (uterus; PMRDA without illumination): highest | necrosis / pathological findings in post-PDT uteri (uterus; uteri after parturition, H&E, SMA, pan-cytokeratin, vWF staining): No necrotic areas were found; also recorded: no pathological findings | pregnancy termination (embryo death rate) following PMRDA-PDT (feto-placental unit [3]; 50 μg/30 μl intra-placental injection at E14, DLTI 120 sec, 755 nm 100 mW/cm^2 for 300 sec, assessed E16, 11/14 embryos): ~80% and 78.6% | embryo mortality rate, dark control (DC) (feto-placental unit [3]; placental administration of photosensitizer without illumination, E14, assessed E16, 3/8 embryos): 37.5% | morbidity to the treated pregnant rat (feto-placental unit [3]; rat, in vivo): did not result in noticeable morbidity
